Measurements reported in US6528685B2 (Teva Pharmaceutical Industries, Ltd., priority 1994, dated 2003).
Structures can show the parent of a compound that is named as a salt.

Key:
rats [1] = experiment: Neurotoxicity in rats, positional sense test and gait stance test; details: rats p.o.; positional sense test and gait stance test
Method: (§1) Neurotoxicity of the claimed agents was also assessed in mice (i.p. administration) by the rotorod ataxia test and/or in rats (p.o. administration) by positional sense test and gait stance test. […] The term quantitating the neurotoxicity is the medial neurological toxic dose (TD50), was determined in the above tests.

mice [2] = experiment: Neurotoxicity in mice, rotorod ataxia test; details: mice i.p.; rotorod ataxia test
Method: as §1

rats [3] = experiment: Maximal electroshock (MES) model, rats; details: rats, oral (p.o.) administration; median effective dose
male ICR albino mice = experiment: Hypobaric hypoxic model in mice, survival time; format: in vivo, mouse
Method: Desiccator B was disconnected and allowed to equilibrate with room air whilst desiccator A was evacuated to a pressure of 100 mmHg. […] The survival time from the moment of induction of hypoxia to the time of cessation of respiration was recorded for each mouse for a maximum of 15 minutes after which time room air was reintroduced to desiccator B. Survivors were monitored for signs of lethargy or vitality.
Effect of drug treatment was assessed as the percent of the survival time of the drug treated group with respect to the saline injected or vehicle injected control group. Control groups were run twice, before and after each experimental group and consisted of 12-16 mice in groups of 4 mice. Each experimental group always consisted of 4 mice to ensure a constant residual volume of oxygen in all tests. The effect of each dose of test drug was determined in duplicate i.e. two groups of 4 mice.
All drugs were administered intra-peritoneally at the dose indicated one hour prior to exposure to hypoxia.

mice [4] = experiment: Maximal electroshock (MES) model, mice; details: mice; for MICE MES ED50: intraperitoneal (i.p.) administration
mongolian gerbils = experiment: Global brain ischemia in gerbils; format: in vivo, mongolian gerbil; details: 3 injections, fraction of hippocampi protected from ischemia, 14 days post-ischemia
Method: Male mongolian gerbils, aged 2.5-5 months, housed 4-8 in a cage, were supplied freely with food and water and maintained at 24° C. with a 12 hour day/night cycle. […] Each artery was clamped for 5 minutes with aneurysm clips to produce global brain ischemia. The anesthesia was discontinued upon clamping. After 5 minutes the clamps were removed and the wound closed with skin clips.
For treatment, the test compound or vehicle were injected intra-peritoneally (ip) in a volume of 50 microliters of solvent per 10 g body weight. The first injection was given two minutes after clamp removal, and thereafter daily for the next 2 post-operative days (total of 3 injections).
Seven groups each of 4-8 animals were compared:
V. Ischemia—Test compound treated, one sub-group per concentration tested,
VI. Ischemia and pentobarbital (40 mg/kg) as positive control).
Analysis of neuronal damage was performed 14 days post-ischemia by counting pyramidal neurons throughout the CA1 layer of the anterior hippocampus in […] thick (paraffin) coronal brain sections stained with hematoxylin and erosin.
Percent Protection values represent the fraction of hippocampi protected from ischemia in a group of animals treated with the stated dose of compound.

[5] = 50 mg/kg ip one hour prior to hypoxia
[6] = 100 mg/kg ip one hour prior to hypoxia

Work on O=C(CCCCC(=O)N[C@@H]1CCc2ccccc21)N[C@@H]1CCc2ccccc21 [Compound 74, N,N′-Bis-((R)-1-indanyl)adipamide] yielded a melting point of 244 to 247 °C.

In the case of CN(C)C1CCc2ccccc21 (racemic) [Compound 15, (rac)-N,N-Dimethyl-1-aminoindan.HCl], the “RATS TD50” value (rats [1]) was >50 mg/kg, the “MICE TD50” value (mice [2]) was <100 mg/kg and the “RATS MES 50” value (rats [3]) was 50 mg/kg.

CCCC(CCC)C(=O)NC1CCc2ccccc21 (stereo not drawn) [Compound 47, N-(2-n-Propylpentanoyl)-1-aminoindan] gave a melting point of 133 to 134 °C.

In the case of COc1cccc(C(=O)NC2CCc3ccccc32)c1 (racemic) [Compound 52, (rac)-N-(m-Anisoyl)-1-aminoindan], the melting point was 140 °C.

With COc1ccc2c(c1OC)CC[C@@H]2N.Cl [Compound 30, (S)-4,5-Dimethoxy-1-aminoindan.HCl] the “PROTECTION % OF RESPECTIVE CONTROL” value (male ICR albino mice; [5]) was 265 ± 284% and the “PROTECTION % OF RESPECTIVE CONTROL” value (male ICR albino mice; [6]) was 379 ± 202%.

With CC(=O)NC1CCc2ccc(C#N)cc21 (racemic) [Compound 61, (rac)-6-Cyano-N-acetyl-1-aminoindan] the melting point was 175 to 176 °C.

For NC1CCc2ccc(O)cc21 (racemic) [Compound 34, (rac)-6-Hydroxy-1-aminoindan.HCl], the “MICE TD50” value (mice [2]) was >300 mg/kg, the “activity in the MES model in mice, in words” value (“activity in the MES model” below) (mice [4]) was “showed activity” and the “MICE MES ED50” value (mice [4]) was <300 mg/kg.

CC(=O)NC1CCc2cccc(C)c21 (racemic) [Compound 20, (rac)-7-Methyl-N-acetyl-1-aminoindan] gave a melting point of 166 to 167 °C.

In the case of COc1ccc2c(c1)C(N)CC2 (racemic) [Compound 25, (rac)-6-Methoxy-1-aminoindan.HCl], the “MICE TD50” value (mice [2]) was >100 mg/kg, the “RATS MES 50” value (rats [3]) was 50 mg/kg and the “MICE MES ED50” value (mice [4]) was <100 mg/kg.

CCCC(=O)NC1CCc2ccccc21 (racemic) [Compound 11, (rac)-N-Butyryl-1-aminoindan] showed a melting point of 84 to 85 °C.

In the case of C[C@@H]1Cc2ccccc2[C@H]1N (racemic) [Compound 39, (rac)-trans-2-Methyl-1-aminoindan.HCl], the “RATS TD50” value (rats [1]) was >50 mg/kg, the “MICE TD50” value (mice [2]) was <100 mg/kg and the “PROTECTION % OF RESPECTIVE CONTROL” value (male ICR albino mice; [5]) was 600 ± 213%. The “PROTECTION % OF RESPECTIVE CONTROL” value (male ICR albino mice; [6]) was 798 ± 249%, the “RATS MES 50” value (rats [3]) was <50 mg/kg and the “MICE MES ED50” value (mice [4]) was <100 mg/kg.

With c1ccc(CNC2CCc3ccccc32)cc1 (racemic) [Compound 16, (rac)-N-Benzyl-1-aminoindan.HCl] the “RATS TD50” value (rats [1]) was >50 mg/kg, the “RATS MES 50” value (rats [3]) was 50 mg/kg and the “MICE MES ED50” value (mice [4]) was <50 mg/kg.

With NC1CCc2ccc(F)cc21 (stereo not drawn) [I, 6-fluoro-1-aminoindan] the “RATS MES 50” value (rats [3]) was <50 mg/kg.

With CC(=O)N[C@H]1CCc2ccccc21 [Compound 19, (S)-N-Acetyl-1-aminoindan] the “PERCENT PROTECTION” value (mongolian gerbils; 1.0 mg/kg ip) was 0%.

In the case of C#CCN[C@H]1CCc2ccccc21.Cl [G, (S)-N-propargyl-1-aminoindan HCl salt], the “RATS MES 50” value (rats [3]) was 57 mg/kg.

In the case of O=C(N[C@@H]1CCc2ccccc21)C(F)(F)F [Compound 68, (R)-N-Trifluoroacetyl-1-aminoindan], the melting point was 152 to 153 °C.

In the case of NC1CCc2cccc(O)c21 (racemic) [Compound 42, (rac)-7-Hydroxy-1-aminoindan.HCl], the “RATS TD50” value (rats [1]) was >50 mg/kg, the “PROTECTION % OF RESPECTIVE CONTROL” value (male ICR albino mice; [5]) was 179 ± 170% and the “PROTECTION % OF RESPECTIVE CONTROL” value (male ICR albino mice; [6]) was 228 ± 119%. The “RATS MES 50” value (rats [3]) was <50 mg/kg.

In the case of N[C@H]1CCc2ccccc21 [C, (S)-1-aminoindan], the “PERCENT PROTECTION” value (mongolian gerbils; 0.1 mg/kg ip) was 0% and the “PERCENT PROTECTION” value (mongolian gerbils; 1.0 mg/kg ip) was 50.0%.

With Cc1ccc2c(c1)CCC2N (racemic) [Compound 38, (rac)-5-Methyl-1-aminoindan.HCl] the “RATS TD50” value (rats [1]) was >50 mg/kg, the “MICE TD50” value (mice [2]) was <100 mg/kg and the “RATS MES 50” value (rats [3]) was 50 mg/kg. For the same molecule, the “MICE MES ED50” value (mice [4]) was <100 mg/kg.

With Cc1ccc(C(=O)NC2CCc3ccccc32)cc1 (racemic) [Compound 54, (rac)-N-(p-Toluoyl)-1-aminoindan] the melting point was 140 °C.

Molecule COc1ccc2c(c1OC)CC[C@H]2NC(C)=O [Compound 21, (R)-4,5-Dimethoxy-N-acetyl-1-aminoindan] has a melting point of 175 °C.

In the case of NC1Cc2ccccc21 (stereo not drawn) [Compound 27, 1-Aminobenzocyclobutene.HCl], the “RATS TD50” value (rats [1]) was >50 mg/kg, the “MICE TD50” value (mice [2]) was >100 mg/kg and the “RATS MES 50” value (rats [3]) was <50 mg/kg. The “MICE MES ED50” value (mice [4]) was <100 mg/kg.

In the case of Cc1cccc2c1C(N)CC2 (racemic) [Compound 28, (rac)-7-Methyl-1-aminoindan.HCl], the “RATS TD50” value (rats [1]) was >50 mg/kg, the “MICE TD50” value (mice [2]) was <100 mg/kg and the “PROTECTION % OF RESPECTIVE CONTROL” value (male ICR albino mice; [5]) was 361 ± 106%. For the same molecule, the “PROTECTION % OF RESPECTIVE CONTROL” value (male ICR albino mice; [6]) was 941 ± 34%, the “RATS MES 50” value (rats [3]) was <50 mg/kg and the “MICE MES ED50” value (mice [4]) was <100 mg/kg.

For CCOC(=O)c1ccc2c(c1)C(NC(C)=O)CC2 (racemic) [Compound 63, (rac)-6-Ethoxycarbonyl-N-acetyl-1-aminoindan], the melting point was 146 to 147 °C.

With c1ccc2c(c1)CCC2NC1CCc2ccccc21 (racemic) [Compound 43, (rac)-N,N-Di-(1-indanyl)amine.HCl] the “RATS TD50” value (rats [1]) was >50 mg/kg, the “MICE TD50” value (mice [2]) was <100 mg/kg and the “RATS MES 50” value (rats [3]) was <50 mg/kg. The “MICE MES ED50” value (mice [4]) was <100 mg/kg.

In the case of CCCN(CCC)S(=O)(=O)c1ccc(C(=O)NC2CCc3ccccc32)cc1 (racemic) [Compound 69, (rac)-N-(4-(di-n-Propylsulfamoyl)benzoyl)-1-aminoindan], the melting point was 124 to 125 °C.

Work on O=C(NC1CCc2ccccc21)c1ccccc1 (racemic) [Compound 46, (rac)-N-Benzoyl-1-aminoindan] yielded a melting point of 140 to 142 °C.

With CC(C)(C)OC(=O)NCCCC(=O)NC1CCc2ccccc21 (racemic) [Compound 6, (rac)-N-(N-Boc-4-aminobutyryl)-1-aminoindan] the melting point was 118 to 120 °C.

In the case of O=C(CCCCC(=O)NC1CCc2ccccc21)NC1CCc2ccccc21 (stereo not drawn) [Compound 73, N,N′-Bis-(1-indanyl)adipamide], the melting point was 227 °C.

For COc1ccc2c(c1)C(NC(C)=O)CC2 (racemic) [Compound 26, (rac) 6-methoxy-N-acetyl-1-aminoindan], the melting point was 131 to 132 °C.

In the case of N[C@H]1CCc2ccc(F)cc21 [K, (S)-6-fluoro-1-aminoindan], the “activity in the MES model” value (mice [4]) was “showed activity”.

Work on CC(=O)NC1CCc2ccc([N+](=O)[O-])cc21 (stereo not drawn) [Compound 58, N-Acetyl-6-nitro-1-aminoindan] yielded a melting point of 179 °C.

For Cc1cc(C)c2c(c1)C(C)CC2N.Cl (racemic) [Compound 41, (rac)-3,5,7-Trimethyl-1-aminoindan.HCl], the “PROTECTION % OF RESPECTIVE CONTROL” value (male ICR albino mice; [5]) was 187 ± 41% and the “PROTECTION % OF RESPECTIVE CONTROL” value (male ICR albino mice; [6]) was 644 ± 316%.

In the case of O=C(CCC(=O)N[C@@H]1CCc2ccccc21)N[C@@H]1CCc2ccccc21 [Compound 75, N,N′-Bis-((R)-1-indanyl)succinamide], the melting point was 266 to 269 °C.

With COc1ccc2c(c1OC)CCC2N (racemic) [Compound 31, (rac)-4,5-Dimethoxy-1-aminoindan.HCl] the “RATS TD50” value (rats [1]) was >50 mg/kg, the “MICE TD50” value (mice [2]) was <100 mg/kg and the “activity in the MES model” value (mice [4]) was “showed activity”. For the same molecule, the “MICE MES ED50” value (mice [4]) was <100 mg/kg.

With C[C@H]1Cc2ccccc2[C@H]1N (racemic) [Compound 40, (rac)-cis-2-Methyl-1-aminoindan.HCl] the “RATS TD50” value (rats [1]) was >50 mg/kg, the “MICE TD50” value (mice [2]) was <100 mg/kg and the “PROTECTION % OF RESPECTIVE CONTROL” value (male ICR albino mice; [5]) was 374 ± 190%. The “PROTECTION % OF RESPECTIVE CONTROL” value (male ICR albino mice; [6]) was 569 ± 173%, the “RATS MES 50” value (rats [3]) was <50 mg/kg and the “MICE MES ED50” value (mice [4]) was <100 mg/kg.

With NC(=O)CNC1CCCc2ccccc21 (racemic) [Compound 4, (rac)-N-(2-Acetamido)-1-aminotetralin] the “MICE MES ED50” value (mice [4]) was <100 mg/kg.

Molecule O=CNC1CCc2ccccc21 (racemic) [Compound 8, (rac)-N-Formyl-1-aminoindan] has a melting point of 105 °C.

With O=C(NC1CCc2ccccc21)c1ccc(F)cc1 (racemic) [Compound 53, (rac)-N-(4′-Fluorobenzoyl)-1-aminoindan] the melting point was 109 to 110 °C.

With C#CCNC1CCc2ccc(F)cc21 (stereo not drawn) [L, 6-fluoro-N-propargyl-1-aminoindan] the “activity in the MES model” value (mice [4]) was “showed activity”.
